Reference: patent US20250171414A1, “COMPOUND SERVING AS MASP-2 INHIBITOR, PHARMACEUTICAL COMPOSITION, PREPARATION METHOD THEREFOR, AND USE THEREOF” (WUHAN CREATERNA SCIENCE AND TECHNOLOGY CO., LTD., priority 2022, published 2025)
Where two headings read alike, the source gives them in different places.

How the values were obtained:
[1] = tested on: lectin pathway (MBL) in human serum; assay: Inhibition of activity of lectin pathway (MBL) in human serum (WIESLAB Complement System MBL Pathway kit); type: biochemical; conditions: 1% human serum
Protocol: The inhibition of the activity of the lectin pathway (MBL) in human serum by compounds was detected using a WIESLAB® Complement System MBL Pathway kit (SVAR, COMPLMP320). Test compounds were each serially diluted in a buffer (Diluent MP), and 1% human serum was incubated with the diluted compound solution for 15 min at room temperature. 100 μL of the mixture was added to a microplate and incubated at 37° C. for 60 min. The liquid in the wells was discarded, and the microplate was washed three times with a washing solution. A Conjugate antibody solution was added at 100 μL/well, and the resulting mixture was incubated for 30 min at 25° C. The liquid in the wells was discarded, and the microplate was washed three times with a washing solution; a substrate solution was added at 100 μL/well, and the resulting mixture was incubated for 30 min at 25° C.; the terminator was added at 50 μL/well, and the absorbance at 405 nm was detected within 30 min by using a microplate reader.

[2] = target: human α-thrombin (Homo sapiens (Human), UniProt P00734); assay: Inhibition of thrombin, fluorescent peptide substrate Boc-VPR-AMC; type: biochemical
Protocol: For thrombin assay, a fluorescent peptide substrate (Boc-VPR-AMC (R&D Systems)) was used and reacted in a buffer containing 20 mM Hepes (pH 7.4), 140 mM NaCl, and 0.1% Tween 20 at room temperature. Assay parameters were adjusted to make the assay linearly related to time, enzyme, and substrate concentration.
The assay method for thrombin is as follows. Test compounds were each serially diluted with a buffer, and then 10 μL of compound solution was transferred to an assay plate. A buffer was added to the assay plate at 10 μL/well, and then a thrombin (human α-thrombin (BioPharm Lab.)) solution was added at 15 μL/well. A Boc-VPR-AMC substrate solution was added at 15 μL/well, and the resulting mixture was incubated for 60 min at 25° C. A terminating solution (0.1 M acetic acid) was added at 15 μL/well, and detection was performed within 30 min by using a SpectraMax i3x microplate reader.

[3] = In vivo pharmacokinetic study in SD rats; conditions: clear
Protocol: After adaptive feeding, the SPF SD rats were each subjected to a single administration of 1 mg/kg or 3 mg/kg of the compound of the present disclosure intragastrically or by tail vein bolus injection. Plasma was collected at specific time points after administration, and the concentration of the compound in plasma was detected by LC-MS/MS (AB Sciex Qtrap 4500).

[4] = Sprague-Dawley (SD), rat, plasma, 1 mg/kg, IV, not fasting
[5] = Sprague-Dawley (SD), rat, plasma, 1 mg/kg, IV, not fasting, read-out: Cmax
[6] = Sprague-Dawley (SD), rat, plasma, 1 mg/kg, PO, fasting
[7] = Sprague-Dawley (SD), rat, plasma, 1 mg/kg, PO, fasting, read-out: Cmax

| AUClast ([3]; 1 mg/kg, IV, not fasting) [ng·h/mL] | Cmax ([3]; 1 mg/kg, IV, not fasting) [ng/mL] | T1/2 ([3]; 1 mg/kg, IV, not fasting) [h] | Compound | IC50 [1] [nM] | IC50 [2] [nM] | AUC(0-t) [3, 4] [ng·h/mL] | half-life [3, 4] [h] | Cmax [3, 5] [ng/mL] | AUC(0-t) [3, 6] [ng·h/mL] | half-life [3, 6] [h] | Cmax [3, 7] [ng/mL] | also measured |
| --- | --- | --- | --- | --- | --- | --- | --- | --- | --- | --- | --- | --- |
| 54837 ± 1386 | 7297 ± 154 | 31.1 ± 1.27 | C[C@H](NC(=O)[C@H]1C[C@H](Cc2ccc(F)cc2)CN1)C(=O)NC1CCc2nc(N)ccc21 (stereo partly drawn) [Compound L001, (2R,4S)—N-((2S)-1-((2-amino-6,7-dihydro-5H-cyclopenta[b]pyridin-5-yl)amino)-1-oxopropan-2-yl)-4-(4-fluorobenzyl) pyrrolidine-2-carboxamide] | 2.67 | > 50000 | – | – | – | – | – | – | AUClast ([3]; 1 mg/kg, PO, fasting): 9822 ± 108 ng·h/mL; Cmax ([3]; 1 mg/kg, PO, fasting): 1483 ± 41.0 ng/mL; T1/2 ([3]; 1 mg/kg, PO, fasting): 10.1 h |
| 299766 ± 11465 | 23267 ± 1538 | 42.4 ± 3.40 | C[C@H](NC(=O)[C@H]1C[C@H](Cc2ccc(F)cc2)CN1)C(=O)N[C@@H]1CCc2nc(N)ccc21 [Compound L001-IS-01, (2R,4S)—N—((S)-1-(((R)-2-amino-6,7-dihydro-5H-cyclopenta[b]pyridin-5-yl)amino)-1-oxopropan-2-yl)-4-(4-fluorobenzyl) pyrrolidine-2-carboxamide] | 0.52 | 27400 | – | – | – | – | – | – | AUClast ([3]; 3 mg/kg, PO, fasting): 188265 ± 20044 ng·h/mL; Cmax ([3]; 3 mg/kg, PO, fasting): 6070 ± 914 ng/mL; T1/2 ([3]; 3 mg/kg, PO, fasting): 43.9 ± 8.44 h |
| – | – | – | C[C@H](NC(=O)[C@H]1C[C@H](Cc2ccc(-c3ccccc3)cc2)CN1)C(=O)NC1CCc2nc(N)ccc21 (stereo partly drawn) [Compound L002, (2R,4S)-4-([1,1′-biphenyl]-4-ylmethyl)-N-((2S)-1-((2-amino-6,7-dihydro-5H-cyclopenta[b]pyridin-5-yl)amino)-1-oxopropan-2-yl) pyrrolidine-2-carboxamide] | 2.48 | > 50000 | – | – | – | – | – | – | – |
| – | – | – | Nc1ccc2c(n1)CCC2NC(=O)[C@@H]1CCN1C(=O)[C@H]1C[C@H](Cc2ccc(-c3ccccc3)cc2)CN1 (stereo partly drawn) [Compound L027, (2S)-1-(2R,4S)-4-([1,1′-biphenyl]-4-(4-methyl)pyrrolidine-2-carbonyl)-N-(2-amino-6,7-dihydro-5H-cyclopenta[b]pyridin-5-yl) azetidine-2-carboxamide] | 1.43 | 11900 | – | – | – | – | – | – | – |
| – | – | – | Nc1ccc2c(n1)CCC2NC(=O)[C@@H]1CCCN1C(=O)[C@H]1C[C@H](Cc2ccc(-c3ccccc3)cc2)CN1 (stereo partly drawn) [Compound L028, (2S)-1-(2R,4S)-4-([1,1′-biphenyl]-4-(4-ylmethyl)pyrrolidine-2-carbonyl)-N-(2-amino-6,7-dihydro-5H-cyclopenta[b]pyridin-5-yl) pyrrolidine-2-carboxamide] | 4.09 | 16600 | – | – | – | – | – | – | – |
| – | – | – | Nc1ccc2c(n1)CCC2NC(=O)[C@@H]1CCN1C(=O)[C@H]1C[C@H](Cc2ccc(F)cc2)CN1 (stereo partly drawn) [Compound L030, (2S)—N-(2-amino-6,7-dihydro-5H-cyclopenta[b]pyridin-5-yl)-1-((2R,4S)-4-(4-fluorobenzyl)pyrrolidine-2-carbonyl) azetidine-2-carboxamide] | 1.85 | 10300 | – | – | – | – | – | – | – |
| – | – | – | C[C@H](NC(=O)[C@H]1C=C(c2ccccc2F)CCN1)C(=O)N[C@@H]1CCc2nc(N)ccc21 [Compound L082, (R)—N—((S)-1-(((R)-2-amino-6,7-dihydro-5H-cyclopenta[b]pyridin-5-yl)amino)-1-oxopropan-2-yl)-4-(2-fluorophenyl)-1,2,5,6-tetrahydropyridine-2-carboxamide] | 8.85 | – | 24700 ± 1030 | 3.21 ± 0.19 | 18600 ± 1960 | 6110 ± 1210 | 2.85 ± 0.05 | 1430 ± 283 | – |
| – | – | – | C[C@H](NC(=O)[C@H]1C=C(c2cccc(F)c2)CCN1)C(=O)N[C@@H]1CCc2nc(N)ccc21 [Compound L083, (R)—N—((S)-1-(((R)-2-amino-6,7-dihydro-5H-cyclopenta[b]pyridin-5-yl)amino)-1-oxopropan-2-yl)-4-(3-fluorophenyl)-1,2,5,6-tetrahydropyridine-2-carboxamide] | 10.6 | – | 16400 ± 936 | 2.71 ± 0.23 | 18000 ± 850 | 3360 ± 778 | 2.97 ± 0.07 | 1090 ± 295 | – |
| – | – | – | C[C@H](NC(=O)[C@H]1C=C(c2cccc(F)c2F)CCN1)C(=O)N[C@@H]1CCc2nc(N)ccc21 [Compound L084, (R)—N—((S)-1-(((R)-2-amino-6,7-dihydro-5H-cyclopenta[b]pyridin-5-yl)amino)-1-oxopropan-2-yl)-4-(2,3-difluorophenyl)-1,2,5,6-tetrahydropyridine-2-carboxamide] | 13.3 | – | 26000 ± 1480 | 3.68 ± 0.22 | 18200 ± 929 | 6880 ± 1430 | 3.09 ± 0.05 | 2140 ± 664 | – |

| Compound | AUClast ([3]; 1 mg/kg, IV, not fasting) [ng·h/mL] | Cmax ([3]; 1 mg/kg, IV, not fasting) [ng/mL] | T1/2 ([3]; 1 mg/kg, IV, not fasting) [h] | IC50 [1] [nM] | IC50 [2] [nM] | AUC(0-t) [3, 4] [ng·h/mL] | half-life [3, 4] [h] | Cmax [3, 5] [ng/mL] | AUC(0-t) [3, 6] [ng·h/mL] | half-life [3, 6] [h] | Cmax [3, 7] [ng/mL] | also measured |
| --- | --- | --- | --- | --- | --- | --- | --- | --- | --- | --- | --- | --- |
| (2R)—N-((2S)-1-((2-amino-6,7-dihydro-5H-cyclopenta[b]pyridin-5-yl)amino)-1-oxopropan-2-yl)-4-phenyl-1,2,3,6-tetrahydropyridine-2-carboxamide [Compound L023-IS-02] | 21567 ± 2996 | 17400 ± 1026 | 3.93 ± 0.18 | 3.36 | – | – | – | – | – | – | – | AUClast ([3]; 3 mg/kg, PO, fasting): 17996 ± 2579 ng·h/mL; Cmax ([3]; 3 mg/kg, PO, fasting): 4340 ± 162 ng/mL; T1/2 ([3]; 3 mg/kg, PO, fasting): 4.20 ± 0.54 h |
